Experimental data taken from article PMC10608985, “Retention Behavior of Anticancer Thiosemicarbazides in Biomimetic Chromatographic Systems and In Silico Calculations” (Molecules, 2023).

Experiments:
[1] = HPLC lipophilicity on cholesterol (Chol) stationary phase; assay type: physicochemical; conditions: pH 7.4; for Log k Chol: Table S3; for log kw Chol: intercept, linear extrapolation to water; for log kw Chol / -S Chol: MeOH/20 mM acetate buffer; for -S Chol: slope of Soczewiński–Wachtmeister equation
Method: (§1) For the evaluation of the compounds the following stationary phases were used: C-18; biomimetic, IAM; cholesterol (Chol); immobilized proteins HSA and AGP. For the lipophilicity determination, MeOH (C-18, Chol) or ACN (IAM) were applied as the organic modifiers. The measurements were performed at pH 7.4 of the mobile phase. The regular changes in the retention of all solutes used as organic modifier content in the mobile phase on three studied stationary phases were found. It is expressed by the Soczewiński–Wachtmeister Equation (1):log k = log kw + S (% organic modifier)(1) where log kw—the intercept; S—the slope of regression curve. […] Log kw as well as S parameters are commonly applied as lipophilicity descriptors.
(§2) HPLC measurements were performed using a liquid chromatograph Knauer (Knauer, Berlin, Germany) with a dual pump, a 20 µL simple injection valve, and a UV–visible detector. The compounds were detected under UV light at 280 nm at room temperature. The retention time of an unretained solute (t0) was determined by the injection of a small amount of citric acid dissolved in water.
Cogent 4 UDC Cholesterol (150 × 2.1 mm, 4 µm) MicroSolv Technology Corporation (Leland, NC, USA) column was used. The mobile phase consisted of different volume mixtures of MeOH as the organic modifier and 20 mM acetate buffer as the aqueous phase, to obtain pH = 7.4. The concentrations of the organic modifier were in the range from 0.3 to 0.8 (v/v) with step 0.05 or 0.1 (Table S3 in the Supplementary Materials). The flow rate was 0.35 mL × min^−1.

[2] = HPLC lipophilicity on IAM (immobilized artificial membrane, phosphatidylcholine) stationary phase; assay type: physicochemical; conditions: pH 7.4; for Log k IAM: Table S2; for log kw IAM: intercept, linear extrapolation to water; for log kw IAM / -S IAM: ACN/20 mM phosphate buffer; for -S IAM: slope of Soczewiński–Wachtmeister equation
Method: as §1, §2
A Rexchrom IAM.PC.DD2 (12 μm, 100 × 4.6 mm, 300 Å) (Regis Technologies, Morton Grove, IL, USA) column was used as the stationary phase. The compounds were dissolved at a concentration of 0.5 mg × mL^−1 in MeOH. The mobile phases consisted of different volume fractions of ACN and 20 mM phosphate buffer; the aqueous phase maintained a pH = 7.4 (0.02 M KH2PO4, Na2HPO4 and 0.15 M KCl). The acetonitrile concentration ranged from 0.05 to 0.4 (v/v), depending on the structure of compound, at 0.05 intervals (Table S2 in the Supplementary Materials). The flow rate was 1 mL × min^−1.

[3] = design: method as in Kozyra et al. [31]; conditions: MeOH/20 mM acetate buffer, pH 7.4, ref Kozyra et al. [31], cited from earlier work; for log kw C-18: intercept of Soczewiński–Wachtmeister equation (water as mobile phase); for -S C-18: slope of Soczewiński–Wachtmeister equation
[4] = test system: α1-acid glycoprotein (AGP); assay: HPLC on immobilized AGP column, affinity and % plasma–protein binding; assay type: in vitro ADME, human; conditions: for log K AGP: binding equilibrium constant from calibration curve (Equation 9) of log k AGP; for fraction unbound: human, pH 7.4, % plasma–protein binding converted from log K AGP (Equation 10), read-out: %PPB AGP (converted); for log k AGP: retention on AGP column, 50 mM ammonium acetate pH 7.4 / propan-2-ol 85/15 (v/v)
Method: (§3) Measurements on HSA and AGP immobilized protein columns were carried out with […] isopropanol content in the aqueous mobile phase.
(§4) The standard calibration curve was used to predict log K values (K—binding equilibrium constant) of investigated compounds to HSA and AGP. Next, the log K values were converted into a percentage of plasma–protein binding (%PPB) of the compounds (Table 2). […] It is the lowest for compound 16 with -NO2 substituent, unsubstituted compound 1, and fluorine derivatives 2 and 9. In a group of […] derivatives in the same position of the phenyl ring, the %PPB to AGP increases with the increase in the atomic weight of the halogen atom and the lipophilicity of the molecule.
as §2
(§5) A human serum albumin (HSA) immobilized on the 5 µm silica gel column 100 × 3 mm (Chiralpac) and an α1-acid glycoprotein (AGP) immobilized on the 5 µm silica gel column 100 × 4 mm (Chiralpac) were used. The compounds were dissolved at 0.5 mg/mL concentration in 50% propan-2-ol and ammonium acetate solution (pH = 7.4) mixtures for HSA measurements. The mobile phase was composed of 50 mM ammonium acetate solution (pH = 7.4) and propan-2-ol at 85/15 (v/v) for AGP, respectively. The flow of mobile phases was 0.5 mL×min^−1. Log k values for the selected mobile phase were determined for all studied compounds and standard substances. The % protein plasma binding (% PPB) values were calculated from the calibration curve according to Valko et al..
(§6) Calibration of the protein columns: The column performance check and the calibration check were performed before measurements. The racemic mixture of warfarin was used for their performance evaluation. The following calibration set of drugs was applied: bromazepam, carbamazepine, diclofenac, nicardipine, nizatidine, piroxicam for HSA and bromazepam, chlorpromazine, imipramine, nicardipine, nizatidine, propranolol, and warfarin for AGP. The analytical standards were purchased from Sigma Aldrich Steinhen, Steinheim am Albuch, Germany). The drugs were dissolved at 0.5 mg/mL concentration in 50% propan-2-ol and ammonium acetate solution mixtures (pH = 7.4). The obtained log k values from HPLC were plotted against the log K values (K—binding equilibrium constant, log K—linearized PPB) based on the literature data for plasma–protein binding (%, PPB). The following relationships were obtained: log KHSA = 0.2513 (±0.0984) + 1.0525 (±0.1171) log k HSA(8) n=6, R=0.9761, R^2 = 0.9528, Radj2 = 0.9410, s = 0.1948 log KAGP = 0.1733 (±0.0574) + 0.8902 (±0.0787) log k AGP(9) n=7, R=0.9810, R^2 = 0.9623, Radj2 = 0.9548, s = 0.1113
(§7) Log K values were converted into %PPB using the following equation [15]:(10) %PPB=101×10^logK/1+10^logK

[5] = biological target: T1, human serum albumin (HSA) (Homo sapiens, UniProt P02768); assay: HPLC on immobilized HSA column, affinity and % plasma–protein binding; assay type: in vitro ADME; conditions: for log K HSA: binding equilibrium constant from calibration curve (Equation 8) of log k HSA; for fraction unbound: human, pH 7.4, % plasma–protein binding converted from log K HSA (Equation 10), read-out: %PPB HSA (converted); for log k HSA: retention on HSA column, 50 mM ammonium acetate pH 7.4 / propan-2-ol 85/15 (v/v)
T1 construct: purchased Chiralpac
T1 sequence (P02768 25-609): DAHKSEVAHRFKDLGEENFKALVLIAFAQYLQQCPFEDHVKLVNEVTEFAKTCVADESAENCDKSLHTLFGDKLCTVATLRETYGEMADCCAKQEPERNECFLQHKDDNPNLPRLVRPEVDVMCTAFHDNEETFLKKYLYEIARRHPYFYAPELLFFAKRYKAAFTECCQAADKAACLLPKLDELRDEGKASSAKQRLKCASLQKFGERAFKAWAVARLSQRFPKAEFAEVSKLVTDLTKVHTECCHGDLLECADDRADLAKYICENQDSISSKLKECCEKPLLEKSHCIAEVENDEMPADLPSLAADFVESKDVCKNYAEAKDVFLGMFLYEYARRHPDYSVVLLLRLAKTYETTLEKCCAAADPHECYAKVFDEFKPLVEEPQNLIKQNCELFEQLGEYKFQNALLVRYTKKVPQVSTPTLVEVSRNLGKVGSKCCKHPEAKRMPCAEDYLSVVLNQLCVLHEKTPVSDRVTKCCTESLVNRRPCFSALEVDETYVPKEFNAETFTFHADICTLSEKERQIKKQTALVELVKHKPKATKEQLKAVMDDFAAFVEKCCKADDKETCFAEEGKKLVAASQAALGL
Method: as §3, §4, §2, §5, §6, §7

Row | Structure (SMILES) | Log k Chol ([1]; MeOH 0.30 v/v in mobile phase) | Log k Chol ([1]; MeOH 0.35 v/v in mobile phase) | Log k Chol ([1]; MeOH 0.40 v/v in mobile phase) | Log k Chol ([1]; MeOH 0.50 v/v in mobile phase) | Log k Chol ([1]; MeOH 0.60 v/v in mobile phase) | Log k Chol ([1]; MeOH 0.80 v/v in mobile phase) | log kw Chol [1] | -S Chol [1] | Log k IAM ([2]; ACN 0.10 v/v in mobile phase) | Log k IAM ([2]; ACN 0.15 v/v in mobile phase) | Log k IAM ([2]; ACN 0.20 v/v in mobile phase) | Log k IAM ([2]; ACN 0.25 v/v in mobile phase) | Log k IAM ([2]; ACN 0.30 v/v in mobile phase) | Log k IAM ([2]; ACN 0.35 v/v in mobile phase) | log kw IAM [2] | -S IAM [2] | log kw C-18 [3] | -S C-18 [3] | log K AGP [4] | fraction unbound [4] | further results
1 | O=C(COc1ccccc1)NNC(=S)Nc1ccccc1 [Compound 1] | 0.979 | 0.857 | 0.620 | 0.110 | -0.157 | -1.006 | 2.2209 | 4.0307 | 0.548 | 0.284 | 0.085 | -0.142 | -0.518 | -0.490 | 1.0288 | 4.4559 | 1.7866 | 3.7611 | 0.4018 | 0.277 | Log k Chol ([1]; MeOH 0.45 v/v in mobile phase): 0.440; Log k IAM ([2]; ACN 0.05 v/v in mobile phase): 0.999; Log k IAM ([2]; ACN 0.40 v/v in mobile phase): -0.556; log k AGP [4]: 0.2567; log K HSA [5]: 1.0986; fraction unbound [5]: 0.065; log k HSA [5]: 0.8050
2 | O=C(COc1ccccc1)NNC(=S)Nc1ccccc1F [Compound 2] | 0.744 | 0.656 | 0.441 | -0.037 | -0.314 | -1.104 | 1.9241 | 3.7822 | 0.692 | 0.455 | 0.234 | -0.010 | -0.358 | -0.461 | 1.1961 | 4.8953 | 2.0774 | 4.3603 | 0.3986 | 0.278 | Log k IAM ([2]; ACN 0.05 v/v in mobile phase): 0.968; log k AGP [4]: 0.2531; log K HSA [5]: 1.2775; fraction unbound [5]: 0.041; log k HSA [5]: 0.9750
3 | O=C(COc1ccccc1)NNC(=S)Nc1ccccc1Cl [Compound 3] | 1.024 | 0.917 | 0.759 | 0.198 | -0.068 | -1.020 | 2.3437 | 4.1573 | 1.022 | 0.794 | 0.515 | 0.291 | -0.138 | -0.209 | 1.5588 | 5.2422 | 2.3929 | 4.5312 | 0.5523 | 0.211 | Log k Chol ([1]; MeOH 0.45 v/v in mobile phase): 0.461; log k AGP [4]: 0.4257; log K HSA [5]: 1.2059; fraction unbound [5]: 0.049; log k HSA [5]: 0.9070
4 | O=C(COc1ccccc1)NNC(=S)Nc1ccccc1I [Compound 4] | 1.105 | 0.974 | 0.747 | 0.244 | -0.037 | -0.938 | 2.3754 | 4.1215 | 1.158 | 0.893 | 0.642 | 0.451 | -0.029 | -0.138 | 1.7099 | 5.3942 | 2.4824 | 4.4182 | 0.6707 | 0.168 | Log k Chol ([1]; MeOH 0.45 v/v in mobile phase): 0.519; log k AGP [4]: 0.5588; log K HSA [5]: 1.5037; fraction unbound [5]: 0.021; log k HSA [5]: 1.1899
